Laboratory results reported in DBAASP.
Converted amounts (≈) assume the structure as drawn. “And” between values parts separate entries of the source, which are not always exact repeats. Equal values may be shown once.

Tests used:
Test in all cases: ≥ marks a high value that may be exact or a test limit, other limits are often not marked, values filed in µg/mL are converted to µM
[1] = tested on: Xanthomonas campestris pv. citri
[2] = tested on: Candida albicans ATCC 90028
[3] = tested on: Cryptococcus neoformans ATCC 28957
[4] = tested on: Bacillus subtilis ATCC 23857
Ramulariopsis gossypii = tested on: Ramulariopsis gossypii
[5] = tested on: Pseudomonas aeruginosa ATCC 27853
[6] = tested on: Escherichia coli ATCC 25922
[7] = tested on: Staphylococcus aureus ATCC 29213
[8] = tested on: Salmonella enterica subsp. enterica serovar Typhimurium C77-31
[9] = tested on: Staphylococcus aureus ATCC 25923
Escherichia coli EC183 = tested on: Escherichia coli EC183
[10] = tested on: Bacillus subtilis CMCC 63501
Escherichia coli UB1005 = tested on: Escherichia coli UB1005
[11] = tested on: Candida albicans CGMCC 2.2086
[12] = tested on: Candida krusei CGMCC 2.1857
[13] = tested on: Candida tropicalis CGMCC 2.1975
Candida albicans CA2761 = tested on: Candida albicans CA2761
[14] = tested on: Staphylococcus epidermidis ATCC 12228
[15] = tested on: Candida parapsilosis CBS 604
[16] = tested on: Candida albicans ATCC 10231
[17] = tested on: Saccharomyces cerevisiae SZMC 0644
Candida krusei CBS 573 = tested on: Candida krusei CBS 573
[18] = tested on: Enterococcus faecalis ATCC 29212
[19] = tested on: Salmonella enterica subsp. enterica serovar Pullorum C79-13
[20] = tested on: Staphylococcus aureus ATCC 43300
[21] = tested on: Klebsiella pneumoniae ATCC BAA-2146
[22] = tested on: Klebsiella pneumoniae ATCC 13883
Klebsiella pneumoniae = tested on: Klebsiella pneumoniae
[23] = tested on: Klebsiella pneumoniae ATCC 700603
[24] = tested on: Acinetobacter baumannii ATCC 19606
[25] = tested on: Bacillus subtilis ATCC 6051
[26] = tested on: Cryptococcus neoformans ATCC 208821
Acinetobacter baumannii = tested on: Acinetobacter baumannii
Pseudomonas aeruginosa = tested on: Pseudomonas aeruginosa

Molecule `CC[C@H](C)[C@H](NC(=O)[C@H](Cc1ccccc1)NC(=O)[C@@H](NC(=O)[C@H](CCC(N)=O)NC(=O)[C@H](Cc1ccc(O)cc1)NC(=O)[C@H](CCCN=C(N)N)NC(=O)[C@@H](NC(=O)[C@H](CC(C)C)NC(=O)[C@H](CCCCN)NC(=O)[C@H](CCC(N)=O)NC(=O)[C@H](CC(C)C)NC(=O)[C@H](CCC(=O)O)NC(=O)[C@H](CCCCN)NC(=O)[C@H](Cc1ccccc1)NC(=O)[C@H](CC(C)C)NC(=O)[C@H](CC(C)C)NC(=O)CN)[C@@H](C)CC)[C@@H](C)CC)C(=O)NCC(=O)N[C@@H](CCCCN)C(N)=O` [GLLFKELQKLIRYQIFIGK] has an MIC [1] of at least 128 µM, an MIC [2] of at least 64 µM and an MIC [3] of at least 64 µM. It also gave an MIC [4] of 16 µM (≈ 36.9 µg/mL), an MIC (Ramulariopsis gossypii) of at least 64 µM and an MIC [5] of 128 µM (≈ 295 µg/mL). The MIC [6] was 26.7 µM (≈ 61.5 µg/mL).
With `CC[C@H](C)[C@H](NC(=O)[C@H](Cc1c[nH]c2ccccc12)NC(=O)[C@H](CCCCN)NC(=O)[C@H](CC(C)C)NC(=O)[C@@H](NC(=O)[C@H](CCCCN)NC(=O)CNC(=O)[C@@H](NC(=O)[C@H](CCCCN)NC(=O)[C@H](CCCCN)NC(=O)[C@H](CC(C)C)NC(=O)[C@H](CCCN=C(N)N)NC(=O)[C@H](CCCCN)NC(=O)[C@H](CCCN=C(N)N)NC(=O)[C@@H](NC(=O)[C@H](CCCCN)NC(=O)[C@H](CCCCN)NC(=O)[C@@H](N)CCCN=C(N)N)[C@@H](C)O)[C@@H](C)CC)C(C)C)C(N)=O` [RKKTRKRLKKIGKVLKWI] the MIC [7] was 4 µM (≈ 9.12 µg/mL), the MIC [8] was 2 µM (≈ 4.56 µg/mL) and the MIC [9] was 8 µM (≈ 18.2 µg/mL). For the same molecule, the MIC (Escherichia coli EC183) was 1 µM (≈ 2.28 µg/mL), the MIC [10] was 1 µM (≈ 2.28 µg/mL) and the MIC (Escherichia coli UB1005) was 2 µM (≈ 4.56 µg/mL). The MIC [11] was 16 µM (≈ 36.5 µg/mL), the MIC [12] was 4 µM (≈ 9.12 µg/mL) and the MIC [13] was 2 µM (≈ 4.56 µg/mL). For the same molecule, the MIC (Candida albicans CA2761) was 8 µM (≈ 18.2 µg/mL), the MIC [14] was 4 µM (≈ 9.12 µg/mL) and the MIC [6] was 2 µM (≈ 4.56 µg/mL).
`CC[C@H](C)[C@H](N)C(=O)N[C@@H](C)C(=O)N[C@H](C(=O)N[C@@H](CO)C(=O)N1CCC[C@H]1C(=O)N[C@@H](Cc1ccc(O)cc1)C(=O)N[C@@H](Cc1ccc(O)cc1)C(=O)N[C@@H](C)C(=O)N[C@H]1CSSC[C@@H](C(=O)N2CCC[C@H]2C(=O)O)NC(=O)[C@H](CC(N)=O)NC1=O)[C@@H](C)O` [IATSPYYACNCP] showed an MIC [15] of at least 76.8 µM, an MIC [16] of over 76.8 µM and an MIC [17] of at least 76.8 µM. It also gave an MIC (Candida krusei CBS 573) of at least 76.8 µM.
Molecule `CC[C@H](C)[C@H](NC(=O)[C@@H]1CSSC[C@H](NC(=O)[C@H](CCCCN)NC(=O)CNC(=O)[C@H](CO)NC(=O)[C@@H](NC(=O)[C@@H](NC(=O)[C@H](CCCCN)NC(=O)[C@H](CO)NC(=O)[C@H](CCCCN)NC(=O)[C@H](CC(=O)O)NC(=O)[C@H](CO)NC(=O)[C@@H]2CCCN2C(=O)CNC(=O)[C@H](CO)NC(=O)[C@H](Cc2cnc[nH]2)NC(=O)[C@H](Cc2ccc(O)cc2)NC(=O)[C@@H](N)CCCCN)C(C)C)[C@@H](C)CC)C(=O)N[C@@H](CCC(=O)O)C(=O)N[C@@H](Cc2c[nH]c3ccccc23)C(=O)N[C@@H](CCC(N)=O)C(=O)NCC(=O)NCC(=O)N[C@@H](CCC(N)=O)C(=O)N[C@@H](CC(C)C)C(=O)N[C@@H](CC(N)=O)C(=O)N1)C(=O)N[C@@H](C)C(=O)N[C@H](C(=O)O)[C@@H](C)O` [KYHSGPSDKSKVISGKCEWQGGQLNCIAT] has an MIC [15] of at least 32 µM, an MIC [16] of over 32 µM and an MIC [17] of at least 32 µM. The MIC (Candida krusei CBS 573) was at least 32 µM.
`CC[C@H](C)[C@H](NC(=O)[C@H](CCCN=C(N)N)NC(=O)[C@H](CCCCN)NC(=O)[C@H](Cc1ccccc1)NC(=O)[C@H](CCC(=O)O)NC(=O)[C@H](CCCCN)NC(=O)CN)C(=O)N[C@H](C(=O)N[C@@H](CCCCN)C(=O)N[C@@H](Cc1c[nH]c2ccccc12)C(=O)N1CCC[C@H]1C(=O)N[C@@H](Cc1c[nH]c2ccccc12)C(=O)N[C@@H](Cc1c[nH]c2ccccc12)C(=O)N1CCC[C@H]1C(=O)N[C@@H](Cc1c[nH]c2ccccc12)C(=O)N[C@@H](CCCN=C(N)N)C(=O)N[C@@H](CCCN=C(N)N)C(N)=O)C(C)C` [GKEFKRIVKWPWWPWRR] was tested, and the MIC [7] was 4 µM and 8 µM, the MIC [8] was 4 µM (≈ 9.42 µg/mL) and the MIC [18] was 4 µM (≈ 9.42 µg/mL). It also gave an MIC [19] of 2 µM (≈ 4.71 µg/mL), an MIC [10] of 4 µM (≈ 9.42 µg/mL) and an MIC (Escherichia coli UB1005) of 2 µM (≈ 4.71 µg/mL). For the same molecule, the MIC [20] was 2 µM (≈ 4.71 µg/mL), the MIC [14] was 8 µM (≈ 18.8 µg/mL) and the MIC [5] was 16 µM (≈ 37.7 µg/mL).
With `CC[C@H](C)[C@@H]1NC(=O)CNC(=O)[C@H](CCCN=C(N)N)NC(=O)[C@H](Cc2ccc(O)cc2)NC(=O)[C@@H]2CSSC[C@H](NC1=O)C(=O)N[C@@H](Cc1ccc(O)cc1)C(=O)N[C@@H](CCCN=C(N)N)C(=O)N[C@@H](CCCN=C(N)N)C(=O)N[C@H](C(=O)N[C@@H](C)C(=O)O)CSSC[C@H](NC(=O)[C@H](Cc1c[nH]c3ccccc13)NC(=O)[C@@H](N)CCCCN)C(=O)N[C@@H](Cc1ccccc1)C(=O)N[C@@H](CCCN=C(N)N)C(=O)N[C@@H](C(C)C)C(=O)N2` [KWCFRVCYRGICYRRCA] the MIC [21] was 0.115 µM (≈ 0.25 µg/mL), the MIC [2] was 1.83 µM (≈ 3.99 µg/mL) and the MIC [22] was 0.0572 µM (≈ 0.125 µg/mL). It also gave an MIC (Klebsiella pneumoniae) of 1.83 µM (≈ 3.99 µg/mL), an MIC [23] of 0.115 µM (≈ 0.25 µg/mL) and an MIC [24] of 0.0572 µM (≈ 0.125 µg/mL). For the same molecule, the MIC [25] was 0.0069 µM (≈ 0.015 µg/mL), the MIC [20] was 0.229 µM (≈ 0.499 µg/mL) and the MIC [26] was 0.115 µM (≈ 0.25 µg/mL). The MIC (Acinetobacter baumannii) was 0.0572 µM (≈ 0.125 µg/mL), the MIC (Pseudomonas aeruginosa) was 0.229 µM (≈ 0.499 µg/mL) and the MIC [5] was 0.115 µM (≈ 0.25 µg/mL). For the same molecule, the MIC [6] was 0.0069 µM (≈ 0.015 µg/mL).
For `CC[C@H](C)[C@H](NC(=O)[C@H](Cc1c[nH]c2ccccc12)NC(=O)[C@H](CCCCN)NC(=O)[C@H](CC(C)C)NC(=O)[C@@H](NC(=O)[C@H](CCCCN)NC(=O)CNC(=O)[C@@H](NC(=O)[C@H](CCCCN)NC(=O)[C@H](CCCCN)NC(=O)[C@H](CC(C)C)NC(=O)[C@H](CCCN=C(N)N)NC(=O)[C@H](CCCCN)NC(=O)[C@H](CCCN=C(N)N)NC(=O)[C@@H](NC(=O)[C@H](CCCCN)NC(=O)[C@H](CCCCN)NC(=O)[C@H](CCCN=C(N)N)NC(=O)[C@H](CC(C)C)NC(=O)[C@H](CCCN=C(N)N)NC(=O)[C@@H](N)CCCN=C(N)N)[C@@H](C)O)[C@@H](C)CC)C(C)C)C(N)=O` [RRLRKKTRKRLKKIGKVLKWI], the MIC [7] was 4 µM (≈ 10.8 µg/mL), the MIC [8] was 1 µM (≈ 2.7 µg/mL) and the MIC [9] was 4 µM (≈ 10.8 µg/mL). It also gave an MIC (Escherichia coli EC183) of 1 µM (≈ 2.7 µg/mL), an MIC [10] of 1 µM (≈ 2.7 µg/mL) and an MIC (Escherichia coli UB1005) of 2 µM (≈ 5.41 µg/mL). The MIC [11] was 8 µM (≈ 21.6 µg/mL), the MIC [12] was 2 µM (≈ 5.41 µg/mL) and the MIC [13] was 1 µM (≈ 2.7 µg/mL). It also gave an MIC (Candida albicans CA2761) of 8 µM (≈ 21.6 µg/mL), an MIC [14] of 4 µM (≈ 10.8 µg/mL) and an MIC [6] of 2 µM (≈ 5.41 µg/mL).
`CC[C@H](C)[C@@H]1NC(=O)CNC(=O)[C@H](CCCN=C(N)N)NC(=O)[C@H](Cc2ccc(O)cc2)NC(=O)[C@H](CO)NC(=O)[C@H](C(C)C)NC(=O)[C@H](CCCN=C(N)N)NC(=O)[C@H](Cc2ccccc2)NC(=O)[C@@H](NC(=O)[C@H](Cc2c[nH]c3ccccc23)NC(=O)[C@@H](N)CCCCN)CSSC[C@@H](C(=O)N[C@@H](CCCN=C(N)N)C(=O)O)NC(=O)[C@H](CCCN=C(N)N)NC(=O)[C@H](CCCN=C(N)N)NC(=O)[C@H](Cc2ccc(O)cc2)NC(=O)[C@H](C)NC1=O` [KWCFRVSYRGIAYRRCR] showed an MIC [21] of 3.6 µM (≈ 7.99 µg/mL), an MIC [2] of 0.901 µM (≈ 2 µg/mL) and an MIC [22] of 1.8 µM (≈ 4 µg/mL). For the same molecule, the MIC (Klebsiella pneumoniae) was 7.21 µM (≈ 16 µg/mL), the MIC [23] was 7.21 µM (≈ 16 µg/mL) and the MIC [24] was 0.225 µM (≈ 0.5 µg/mL). For the same molecule, the MIC [25] was 0.0563 µM (≈ 0.125 µg/mL), the MIC [20] was 7.21 µM (≈ 16 µg/mL) and the MIC [26] was 0.225 µM (≈ 0.5 µg/mL). For the same molecule, the MIC (Acinetobacter baumannii) was 0.45 µM (≈ 0.999 µg/mL), the MIC (Pseudomonas aeruginosa) was 7.21 µM (≈ 16 µg/mL) and the MIC [5] was 3.6 µM (≈ 7.99 µg/mL). It also gave an MIC [6] of 0.45 µM (≈ 0.999 µg/mL).
